Laboratory results as given in patent US10888549B2, “Pharmaceutical agents targeting cancer stem cells” (THE JOHNS HOPKINS UNIVERSITY, priority 2016, dated 2021).

Tests used:
[1] = tested on: AKT and extracellular signal-related kinase (ERK); test: Western blotting of AKT and ERK activation; format: cell-based, human; settings: basal-type cells; 1 μM erlotinib
Description: (§1) Whole cell lysates were extracted using RIPA buffer (Thermo Scientific) supplemented with 10 μL/mL Halt™ Protease Inhibitor Cocktail Kit (Life Technologies) and 30 μL/mL Halt™ Phosphatase Inhibitor Cocktail Kit (Life Technologies). The protein concentrations were determined using a Pierce™ BCA Protein Assay Kit (Life Technologies), and the protein were separated on NuPAGE® 4-12% Bis-Tris Gel (Life Technologies) according to the manufacturer's protocol. COX2 (D5H5), NANOG (D73G4), OCT4 (D7O5Z), CD133 (A3G6K), Snail (C15D3), ZEB1 (D80D3), Vimentin (D21H3), CDH2 (D4R1H), CDH1 (24E10), p-EGFR (D7A5), EGFR (D38B1), p-AKT (D9E), AKT (cat #, 9272), p-ERK (D13.14.4E), ERK (137F5), p-YAP1 (D9W2I), p-Src (cat #, 2101), Src (36D10), DNMT1 (D63A6), DNMT3A (D23G1), and DNMT3B (D7O7O) antibodies were obtained from Cell Signaling Technology (Danvers, Mass., USA), except for SOX2 (EPR3131; Abcam, Cambridge, USA), YAP1 (ab52771; Abcam), CD24 (cat #, AF5247-SP; R&D Systems, Minneapolis USA) and β-actin (A2228; Sigma-Aldrich). Secondary horseradish peroxidase (HRP)-conjugated antibodies were obtained from Cell Signaling Technology, and chemiluminescent detection of HRP-labeled antibodies was performed using Amersham ECL Prime Western Blotting Detection Reagent (GE Healthcare, Piscataway, USA). As loading control, β-actin was used.

EGFR-MAPK signaling = test: Western blotting in xenograft tumors that acquired resistance to erlotinib; format: in vivo, mice; settings: xenograft tumors with acquired resistance to EGFR inhibitor
Description: (§2) Whole cell lysates were extracted using RIPA buffer (Thermo Scientific) supplemented with 10 μL/mL Halt™ Protease Inhibitor Cocktail Kit (Life Technologies) and 30 μL/mL Halt™ Phosphatase Inhibitor Cocktail Kit (Life Technologies). […] Secondary horseradish peroxidase (HRP)-conjugated antibodies were obtained from Cell Signaling Technology, and chemiluminescent detection of HRP-labeled antibodies was performed using Amersham ECL Prime Western Blotting Detection Reagent (GE Healthcare, Piscataway, USA). As loading control, β-actin was used.
For celecoxib and/or VP treatment, celecoxib (5 mg/kg) was administered via intraperitoneal (i.p.) injection once a day (17), and VP (50 mg/kg) was administered via i.p. every other day (18). […] For GEM and CDDP (GC) treatment (i.p.), CDDP (6 mg/kg) was only applied after the first GEM (60 mg/kg) treatment on day 2, followed by three consecutive treatments of GEM on day 5, 8 and 11 (17). The next cycle was started on day 18, and the treatment was continued until tumor reached 2 cm in diameter. For erlotinib treatment, the mice were treated once a day, 6 days per week, by oral gavage with erlotinib (100 mg/kg) or control (PBS containing 0.5% methyl cellulose (Sigma-Aldrich) and 0.1% TWEEN 80) (20). Tumor size was measured at least every three days. […]

urothelial CSCs = test: Sphere formation assay (CSC properties); format: cell-based, human; settings: basal-type cells; 1 μM erlotinib for 72 hours
Description: Sphere formation was induced by culturing cells (2×10^4/well) in DMEM/Ham's F12 50/50 Mix (Mediatech) supplemented with B-27 (Life Technologies), 20 ng/mL FGF-basic (Peprotech), 20 ng/mL EGF (Peprotech). Cell culture was performed in ultra-low attachment 6 well plates (Corning, Lowell, USA) for 10 days. The medium was replaced every other day. Sphere formation was evaluated using the inverted phase-contrast microscope, and single sphere with a diameter larger than 100 μm was counted using NIS-Elements Microscope Imaging Software. To redifferentiate spheres, spheres were plated in standard growth medium with 10% FBS in dishes supporting cell attachment, and incubated for 7 days. For self-renewal assay, primary spheres were collected by gentle centrifugation (5 min at 400×g), dissociated with Stempro Accutase Cell Dissociation Reagent (Life Technologies), and mechanically disrupted with a pipette. The cell suspension was sieved through 40 μm cell strainer cap filter to achieve a single-cell suspension, and then equal numbers of alive cells were plated in ultralow attachment plates to generate the second spheres. Again, spheres were counted on day 14 and digested to generate the third Spheres. All the experiments were performed in triplicate and repeated at least three times.

YAP1 = YAP1 expression by western blotting; format: cell-based, human
Description: as §1

SOX2 = SOX2 expression by western blotting / flow cytometry; format: cell-based, human; settings: basal-type cells
Description: as §1
For extracellular staining, cells (1×10^6/100 μL stain buffer) were incubated with PE-Vio770-conjugated anti-human CD133 (293C3; Miltenyi Biotec, Auburn, USA) or PE-conjugated anti-human CD24 antibody (cat #, 560991; BD Biosciences) for 30 min at 4° C. in dark. PE-Vio770-conjugated Isotype (cat #, 130-098-563; Miltenyi Biotec) and PE-conjugated IgG2a, κ Isotype (cat #, 555574; BD Biosciences) were used as control for CD133 and CD24 staining, respectively. Staining for intracellular SOX2 was carried out using the BD Cytofix/Cytoperm Fixation/Permeabilization Kit (BD Biosciences) according to manufacturer's protocol. The cells were incubated with Alexa Fluor 647-conjugated anti-SOX2 antibody (cat #, 560302; BD Biosciences) for 40 min at 4° C. in dark. Alexa Fluor 647-conjugated anti-IgG2a, κ Isotype (cat #, 558053; BD Biosciences) was used as control. Data were acquired on a BD FACSCalibur flow cytometer (BD Biosciences) using BD CellQuest Pro software (BD Biosciences) and analyzed with FlowJo software v10.1 (Tree Star, Ashland, USA).

COX2 = COX2 expression by western blotting; format: cell-based, human
Description: as §2

## C#Cc1cccc(Nc2ncnc3cc(OCCOC)c(OCCOC)cc23)c1 [erlotinib, Erlotinib]
[1]
  activation of AKT and extracellular signal-related kinase (ERK): suppressed activation
EGFR-MAPK signaling
  EGFR-MAPK signaling: remained suppressed
Urothelial CSCs
  number of spheres: enriched number of spheres
YAP1; basal-type cells
  YAP1 expression: continuously decreased
YAP1; non-basal-type cells
  YAP1 expression: did not affect
SOX2
  SOX2 expression: decreased at 1 hour after treatment with erlotinib and then gradually increased
COX2; basal-type cells
  COX2 expression: increased
COX2; non-basal-type cells
  COX2 expression: did not affect
